ChEMBL document CHEMBL1149511, “Tri-substituted triazoles as potent non-nucleoside inhibitors of the HIV-1 reverse transcriptase” (Bioorg Med Chem Lett, 2006)

Tests used:
Format in all cases: functional, cell-based
HeLa [1] = assay: Antiviral activity against wild type HIV1 in HeLa-JC53 cells; settings: Homo sapiens
HeLa [2] = assay: Antiviral activity against HIV1 K103N-Y181C mutant in HeLa-JC53 cells
HeLa [3] = assay: Antiviral activity against HIV1 Y188L mutant in HeLa-JC53 cells

Compound | EC50 (HeLa [1]) [nM] | EC50 (HeLa [2]) [nM] | EC50 (HeLa [3]) [nM]
Cc1ccc(-n2c(C)nnc2SCC(=O)Nc2ccc(Oc3ccccc3)cc2)cc1 | 1100 | > 10000 | 
CNCc1nnc(SCC(=O)Nc2ccc(C)cc2Br)n1-c1ccc(C)cc1 |  | > 10000 | 
Cc1ccc(-n2c(C)nnc2SCC(=O)Nc2ccc(C)cc2Cl)cc1 | 0.9 | 170 | 
COC(=O)c1ccc(NC(=O)CSc2nnc(C)n2-c2ccc(C)cc2)c(Cl)c1 | 0.4 | 120 | 
Cc1ccc(-n2c(SCC(=O)Nc3ccc(C)cc3Br)nnc2C2CC2)cc1 |  | > 10000 | 
Cc1ccc2c(-n3c(C)nnc3SCC(=O)Nc3ccccc3Br)ccc(C)c2c1 | 0.5 |  | 150
Cc1nnc(SCC(=O)Nc2ccc(S(N)(=O)=O)cc2Cl)n1-c1ccc(N(C)C)c2ccccc12 | 0.5 |  | 88
Cc1ccc(-n2c(SCC(=O)Nc3ccc(C)cc3Br)nnc2C(F)(F)F)cc1 | 0.5 | 1100 | 
Cc1ccc(-n2c(C)nnc2SCC(=O)Nc2cc(Cl)ccc2Cl)cc1 | 100 |  | 
Cc1ccc(-n2c(C)nnc2SCC(=O)Nc2cccc(Cl)c2Cl)cc1 | 0.1 | 110 | 
Cc1cc2c(C)cccc2c(-n2c(C)nnc2SCC(=O)Nc2ccccc2Br)c1C | 0.8 |  | 160
Cc1ccc(NC(=O)CSc2nnc(C)n2-c2ccc(F)cc2)c(Cl)c1 | 2300 | > 10000 | 
Cc1ccc(-n2cnnc2SCC(=O)Nc2ccc(C)cc2Br)cc1 | 70 | > 10000 | 
COCc1nnc(SCC(=O)Nc2ccc(C)cc2Br)n1-c1ccc(C)cc1 |  | > 10000 | 
Cc1ccc(-n2c(C)nnc2SCC(=O)Nc2ccc(C)cc2Br)cc1 | 0.4 | 100 | 
Cc1ccc(-n2c(C)nnc2SCC(=O)Nc2ccc(Cl)cc2Cl)cc1 | 5 |  | 
Cc1ccc(NC(=O)CSc2nnc(C)n2-c2ccc(C(F)(F)F)cc2)c(Cl)c1 | 19 | 230 | 
Cc1ccc(-n2c(C)nnc2SCC(=O)Nc2ccc(S(N)(=O)=O)cc2Cl)c2ccccc12 | 0.2 |  | 20
Cc1ccc2cccc(C)c2c1-n1c(C)nnc1SCC(=O)Nc1ccccc1Br | 1 |  | 480
Cc1ccc(-n2c(C)nnc2SCC(=O)Nc2ccccc2Cl)cc1 | 0.7 | 150 | 

Compound | EC50 (HeLa [1]) [nM] | EC50 (HeLa [2]) [nM] | EC50 (HeLa [3]) [nM]
Cc1nnc(SCC(=O)Nc2ccccc2Br)n1-c1cccc2ccccc12 | 2 |  | 720
COc1ccc(-n2c(C)nnc2SCC(=O)Nc2ccc(C)cc2Cl)c2ccccc12 | 1 |  | 240
Cc1cc2cccc(C)c2c(-n2c(C)nnc2SCC(=O)Nc2ccccc2Br)c1C | 3 |  | 200
Cc1ccc(-n2c(C)nnc2SCC(=O)Nc2ccc(C)cc2Cl)c(C)c1 | 0.1 | 60 | 
COc1ccc(-n2c(SCC(=O)Nc3ccc(S(N)(=O)=O)cc3Cl)nnc2C(F)(F)F)c2ccccc12 | 0.4 |  | 14
Cc1ccc(-n2c(C)nnc2SCC(=O)Nc2ccc(C#N)cc2Cl)cc1 | 3 | 900 | 
Cc1ccc2cccc(-n3c(SCC(=O)Nc4ccc(S(N)(=O)=O)cc4Cl)nnc3C(F)(F)F)c2n1 | 0.6 |  | 22
NS(=O)(=O)c1ccc(NC(=O)CSc2nnc(C(F)(F)F)n2-c2ccc(Cl)c3ccccc23)c(Cl)c1 | 4 |  | 41
Cc1ccc(-n2c(C)nnc2SCC(=O)Nc2ccc(Cl)cc2)cc1 | 400 | > 10000 | 
Cc1nnc(SCC(=O)Nc2ccc(S(N)(=O)=O)cc2Cl)n1-c1cccc2cccnc12 | 4 |  | 2400
Cc1ccc2c(C)ccc(-n3c(C)nnc3SCC(=O)Nc3ccc(S(N)(=O)=O)cc3Cl)c2n1 | 0.6 |  | 15
Cc1ccc(NC(=O)CSc2nnc(C)n2-c2ccccc2Cl)c(Cl)c1 | 8 | 100 | 
Cc1ccc(-n2c(CO)nnc2SCC(=O)Nc2ccc(C)cc2Br)cc1 |  | > 10000 | 
COc1cc(-n2c(C)nnc2SCC(=O)Nc2ccc(S(N)(=O)=O)cc2Cl)c2ncccc2c1 | 0.8 |  | 370
Cc1ccc(NC(=O)CSc2nnc(C)n2-c2cccc3cccnc23)c(Cl)c1 | 8 |  | 5700
NS(=O)(=O)c1ccc(NC(=O)CSc2nnc(C(F)(F)F)n2-c2cccc3cccnc23)c(Cl)c1 | 2 |  | 180
Cc1nnc(SCC(=O)Nc2ccc(S(N)(=O)=O)cc2Cl)n1-c1cc(Br)cc2cccnc12 | 0.8 |  | 190
Cc1ccc(NC(=O)CSc2nnc(C)n2-c2c(C)cc(C)c3ccccc23)c(Cl)c1 | 1 |  | 90
Cc1cc2c(C)ccc(-n3c(C)nnc3SCC(=O)Nc3ccccc3Br)c2cc1C | 1 |  | 110
Cc1nnc(SCC(=O)Nc2ccccc2Br)n1-c1ccc(N(C)C)c2ccccc12 | 0.4 |  | 240

Compound | EC50 (HeLa [1]) [nM] | EC50 (HeLa [2]) [nM] | EC50 (HeLa [3]) [nM]
Cc1ccc(NC(=O)CSc2nnc(C)n2-c2cccc(Cl)c2)c(Cl)c1 | 260 |  | 
Cc1nnc(SCC(=O)Nc2ccccc2Br)n1-c1cccc2cccnc12 | 7 |  | 4200
Cc1ccc(NC(=O)CSc2nnc(C)n2-c2cccc(C(F)(F)F)c2)c(Cl)c1 | > 600 |  | 
Cc1nnc(SCC(=O)Nc2ccc(S(N)(=O)=O)cc2Cl)n1-c1ccc(Cl)c2ccccc12 | 1 |  | 68
Cc1ccc(-n2c(O)nnc2SCC(=O)Nc2ccc(C)cc2Br)cc1 |  | > 10000 | 
Cc1cccc(-n2c(C)nnc2SCC(=O)Nc2ccc(C)cc2Cl)c1 | 110 |  | 
Cc1ccc2c(C)cccc2c1-n1c(C)nnc1SCC(=O)Nc1ccccc1Br | 0.3 |  | 330
Cc1ccc2c(C)ccc(-n3c(C)nnc3SCC(=O)Nc3ccccc3Br)c2c1 | 0.3 |  | 12
Cc1ccc(NC(=O)CSc2nnc(C)n2-c2cc(C)c(C)c3ccccc23)c(Cl)c1 | 1 |  | 160
COc1ccc(-n2c(C)nnc2SCC(=O)Nc2ccc(S(N)(=O)=O)cc2Cl)c2ccccc12 | 0.7 |  | 110
Cc1ccc2cc(Cl)cc(-n3c(C)nnc3SCC(=O)Nc3ccc(S(N)(=O)=O)cc3Cl)c2n1 | 2 |  | 100
Cc1ccc(-n2c(SCC(=O)Nc3ccc(S(N)(=O)=O)cc3Cl)nnc2C(F)(F)F)c2ccccc12 | 0.4 |  | 25
CSCc1nnc(SCC(=O)Nc2ccc(C)cc2Br)n1-c1ccc(C)cc1 |  | > 10000 | 
Cc1ccc2c(C)ccc(-n3c(SCC(=O)Nc4ccc(S(N)(=O)=O)cc4Cl)nnc3C(F)(F)F)c2c1 | 6 |  | 35
NS(=O)(=O)c1ccc(NC(=O)CSc2nnc(C(F)(F)F)n2-c2cccc3ccccc23)c(Cl)c1 | 0.5 |  | 49
Cc1ccc2ccc(C)c(-n3c(SCC(=O)Nc4ccc(S(N)(=O)=O)cc4Cl)nnc3C(F)(F)F)c2c1 | 3 |  | 26
Cc1ccc2cccc(-n3c(C)nnc3SCC(=O)Nc3ccc(S(N)(=O)=O)cc3Cl)c2n1 | 1 |  | 390
Cc1ccc2c(C)cc(C)c(-n3c(C)nnc3SCC(=O)Nc3ccc(S(N)(=O)=O)cc3Cl)c2n1 | 0.7 |  | 11
Cc1ccc(-n2c(SCC(=O)Nc3ccc(C)cc3Br)nnc2C(C)C)cc1 |  | > 10000 | 
Cc1nnc(SCC(=O)Nc2ccc(S(N)(=O)=O)cc2Cl)n1-c1cccc2ccccc12 | 0.5 |  | 190
